From publication PMC6467816 (Journal of peptide science : an official publication of the …, 2019)
Peptide text beside a SMILES is read from it.

Columns and labels:
[1] = tested on: viruses pseudotyped with vesicular stomatitis virus glycoprotein, VSV-G; type: cell-based
HOS.CD4.CCR5 cells = assay: MTT; type: cell-based; conditions: concentrations 50 fold higher than IC50 values, 24 hours continuous cellular exposure
[2] = In vitro stability to proteolysis in human serum; type: in vitro ADME; conditions: 24 h treatment, 37 °C, RP-HPLC 280 nm
trypsin = conditions: cited from earlier work
chymotrypsin = conditions: cited from earlier work
[3] = rat, in vivo; cited from earlier work
[4] = Pharmacokinetic analysis after intravenous bolus in rats; type: in vivo, Sprague-Dawley rats

Row | Structure (SMILES) | Inhibition of VSV-G pseudotyped virus [1] | Toxicity in target HOS.CD4.CCR5 cells (HOS.CD4.CCR5 cells) | Stability to human serum protease mixture [2] | Resistance to proteolysis by trypsin (trypsin) | Resistance to proteolysis by chymotrypsin (chymotrypsin) | Clearance rate [3] | Time over which plasma level was detectable ([4]; after tail vein administration to rats, fluorescence) [h] | AUC(0-inf) ([4]; rat, in vivo, iv, 0.01 mg/kg) [ng·h/mL] | Vd ([4]; rat, in vivo, iv, 0.01 mg/kg) [L] | clearance ([4]; rat, in vivo, iv, 0.01 mg/kg, CL (ml/h), clearance, intravenous bolus 0.01 mg/kg FITC (equiv), Sprague-Dawley rats) [mL/min] | half-life ([4]; rat, in vivo, iv, 0.01 mg/kg, t1/2α (h), distribution half life, intravenous bolus 0.01 mg/kg FITC (equiv), Sprague-Dawley rats) [h] | half-life ([4]; rat, in vivo, iv, 0.01 mg/kg, t1/2β (h), elimination half life, intravenous bolus 0.01 mg/kg FITC (equiv), Sprague-Dawley rats) [h]
1 | CC[C@H](C)[C@@H]1NC(=O)[C@H](CC(N)=O)NC(=O)[C@@H](N)CC(=O)NCCCC[C@@H](C(N)=O)NC(=O)[C@H](Cc2c[nH]c3ccccc23)NC(=O)[C@@H]2C[C@H](n3cc(C4=CC=C[CH]4[Fe][CH]4C=CC=C4)nn3)CN2C1=O (stereo partly shown) [AAR029b] (HELM PEPTIDE1{D.N.I.[O=C([C@@H]1C[C@H](n2cc(C3=CC=C[CH]3[Fe][CH]3C=CC=C3)nn2)CN1[*:1])[*:2]].W.K.[am]}$PEPTIDE1,PEPTIDE1,1:R3-6:R3$$$V2.0; N-terminus and C-terminus assumed) | did not inhibit | No toxicity | intact | resistant to proteolysis | resistant to proteolysis | – | – | – | – | – | – | –
2 | COc1ccnc2[nH]cc(C(=O)C(=O)N3CCN(C(=O)c4ccccc4)C[C@H]3C)c12 [BMS-378806] | – | – | – | – | – | ~ 1800 mL/h | – | – | – | – | – | –
3 | CC[C@H](C)[C@@H]1NC(=O)[C@H](CC(N)=O)NC(=O)[C@@H](NC(=S)Nc2ccc3c(c2)C(=O)OC32c3ccc(O)cc3Oc3cc(O)ccc32)CC(=O)NCCCC[C@@H](C(N)=O)NC(=O)[C@H](Cc2c[nH]c3ccccc23)NC(=O)[C@@H]2C[C@H](n3cc(C4=CC=C[CH]4[Fe][CH]4C=CC=C4)nn3)CN2C1=O (stereo partly shown) [FITC-AAR029b] (HELM PEPTIDE1{[O=C1OC2(c3ccc(O)cc3Oc3cc(O)ccc32)c2ccc(NC(=S)[*:2])cc21].D.N.I.[O=C([C@@H]1C[C@H](n2cc(C3=CC=C[CH]3[Fe][CH]3C=CC=C3)nn2)CN1[*:1])[*:2]].W.K.[am]}$PEPTIDE1,PEPTIDE1,2:R3-7:R3$$$V2.0; C-terminus assumed) | – | – | intact | – | – | – | ≤ 7 | 40 ± 40 | 0.542 ± 0.119 | 2.27 | 0.029 ± 0.01 | ~3
